Results as given in patent publication US11850220B2 (Augusta University Research Institute, Inc., priority 2020, dated 2023).

Legend:
[1] = system: carrageenan-induced paw edema; assay: carrageenan-induced paw edema technique (anti-inflammatory); assay type: in vivo; conditions: for Observed (1/property): 1/(% inhibition of edema thickness at 3 h effect); as to Observed (1/property): test concentration or dose not given here; as to Potency (% Inhibition relative to indomethacin at 3 h effect): test concentration or dose not given here
Excerpt: Anti-inflammatory properties of the ibuprofen-amino acid conjugate (5a-j) and ibuprofen-amino acid-4-aminophenol conjugates 7a-j were studied by the standard carrageenan-induced paw edema technique (Naumov, R. N. et al., Bioorg. Med. Chem. Lett. 2015, 25, 2314-2320; Tiwari, A. D. et al., Org. Biomol. Chem. 2014, 12, 7238-7249).

animal gastric mucosa = assay: ulcerogenic liability; assay type: in vivo; conditions: in vivo
[2] = system: acetic acid-induced abdominal writhing; assay: acetic acid-induced abdominal writhing technique (peripheral analgesic); assay type: in vivo; conditions: for Potency: Relative to indomethacin; for % Inhibition/protection / Writing reflex ± SEM: in vivo; as to % Inhibition/protection: test concentration or dose not given here; as to Writing reflex ± SEM: test concentration or dose not given here
hot plate = hot plate technique (central analgesic); assay type: in vivo; conditions: for Potency: Relative to indomethacin at 120 min.
[3] = % inhibition of edema thickness at 3 h effect, Table 7
[4] = anti-inflammatory property (% inhibition of edema at 3 h), Table 8

Row | SMILES | Observed (1/property) ([1]; Table 7) | % inhibition of edema ([1]; 1 h) [%] | Mean edema thickness ([1]; 1 h) [mm] | % inhibition of edema ([1]; 2 h) [%] | Mean edema thickness ([1]; 2 h) [mm] | % inhibition of edema ([1]; 3 h) [%] | Mean edema thickness ([1]; 3 h) [mm] | % inhibition of edema ([1]; 4 h) [%] | Mean edema thickness ([1]; 4 h) [mm] | % inhibition of edema ([1]; 24 h) [%] | Mean edema thickness ([1]; 24 h) [mm] | Observed property [1, 3] [%] | Observed property [1, 4] [%] | Potency (% Inhibition relative to indomethacin at 3 h effect) [1] [%] | Potency [2] | % Inhibition/protection [2] [%] | Writing reflex ± SEM [2] | % protection (hot plate; After 30 min.) | Latency period ± SEM (hot plate; After 30 min.) [s] | % protection (hot plate; After 60 min.) | further results
1 | CC(C)Cc1ccc(C(C)C(=O)N[C@@H](CCC(N)=O)C(=O)O)cc1 (stereo partly drawn) [Compound 5j, (2-(4-Isobutylphenyl)propanoyl)-L-glutamine] | 0.01389 | 25 | 0.92 ± 0.05 | 45 | 0.83 ± 0.04 | 72 | 0.36 ± 0.02 | 8 | 1.15 ± 0.06 | 47 | 0.10 ± 0.03 | 72 | 72 | 90 | 3 | 1.6 | 95.7 ± 2.4 | (22.3) % | 2.96 ± 0.02 | (25.1) % | % Incidence of ulcer divided by 10 (animal gastric mucosa): 0; Average of ulcer number (animal gastric mucosa): 0; Average severity of ulcer (animal gastric mucosa): 0; Number of animals with ulcer (animal gastric mucosa): 0; Ulcer index (animal gastric mucosa): 0; Latency period ± SEM (hot plate; After 60 min.): 2.79 ± 0.03 s; % protection (hot plate; After 90 min.): (45.5) %; Latency period ± SEM (hot plate; After 90 min.): 3.20 ± 0.04 s; % protection (hot plate; After 120 min.): (46.1) %; Latency period ± SEM (hot plate; After 120 min.): 3.20 ± 0.03 s; Potency (hot plate): 81; melting point: 67.4 °C
2 | CC(C)Cc1ccc(C(C)C(=O)NCCCC(=O)Nc2ccc(O)cc2)cc1 (centres unmarked) [Compound 7d, N-(4-Hydroxyphenyl)-4-(2-(4-isobutylphenyl)propanamido)butanamide] | 0.01515 | 13 | 1.07 ± 0.06 | 25 | 1.14 ± 0.04 | 66 | 0.44 ± 0.03 | 13 | 1.09 ± 0.04 | 53 | 0.09 ± 0.01 | 66 | 66 | 83 | 77 | 42.1 | 56.3 ± 0.7 | (49.2) % | 3.61 ± 0.05 | (27.8) % | Latency period ± SEM (hot plate; After 60 min.): 2.85 ± 0.04 s; % protection (hot plate; After 90 min.): (15.0) %; Latency period ± SEM (hot plate; After 90 min.): 2.53 ± 0.02 s; % protection (hot plate; After 120 min.): (12.3) %; Latency period ± SEM (hot plate; After 120 min.): 2.46 ± 0.09 s; Potency (hot plate): 22; melting point: 140.6 °C
